Data on two compounds can be found in patent US5663295A, “Opioid peptides” (Biomeasure Inc., priority 1994, dated 1997).

The term Ki denotes the equilibrium dissociation constant of an inhibitor or competing ligand from its target. The low end stands for higher affinity, the high end for lower affinity.

One assay deals with Human NSLC A549. Put plainly: Subcutaneous tumor assay, human non-small cell lung cancer A549 xenografts. Format: in vivo, athymic nude mice. The protocol: Table 5 compares the antitumor activity of an opioid BIM-38009 versus methadone. A subcutaneous tumor assay was used in which xenografts of the human non-small cell lung cancer were implanted s.c. in athymic nude mice. Test compounds were administered s.c. or i.p., twice daily, from day 4 post tumor implantation to day 35. The results are reported as means±s.e.m. on 8 animals per group. For structure of BIM-38009, see above.
(In general: Xenograft models place foreign cells or tissue in a host animal.)

Another assay concerns the target μ receptor. Briefly: In vitro receptor binding, μ receptor, radioligand DAGO. Further details: species or system guinea-pig or rat. Particulars: forebrain membranes, 25° C., 60 min. As to the method:
(§1) The following procedure was used to determine the ability of various opioid peptides to inhibit binding at opioid receptors. Crude membranes were prepared by homogenization of guinea-pig or rat forebrain samples in 20 ml of ice-cold 50 mM Tris-HCl with a Brinkman Polytron (setting 6, 15 sec.). Buffer was added to obtain a final volume of 40 ml, and the homogenate centrifuged in a Sorval SS-34 rotor at 39,000 g for 10 min. at 0°-4° C. The resulting supernatant was decanted and discarded. The pellet was rehomogenized in ice-cold buffer, pre-incubated at 37° C. for 45 min., diluted, and centrifuged as before. The final pellet was resuspended in 50 mM Tris HCl and held on ice for the receptor binding assay.
(§2) Aliquots of the washed membrane preparation (described above) were incubated in 50 mM Tris HCl at a total volume of 2.0 ml at 25° C. with an opioid receptor ligand (see below) and various concentrations of the unlabeled test compounds. Mu and kappa receptor assays were incubated for 60 minutes. […] At the end of the incubation periods, the assays were terminated by rapid filtration though Whatman GF/B glass fiber filters, and the bound radioactivity trapped on the filters counted by liquid scintillation spectrometry. For each of the three receptor subtypes, specific binding was calculated as the total radioligand bound minus that bound in the presence of 1000 nM levallorphan. […]

The target in a further assay is δ receptor. Briefly: In vitro receptor binding, δ receptor, radioligand DPPE. Further details: species or system guinea-pig or rat. Particulars: forebrain membranes, 25° C., 40 min. As to the method: as §1, §2
For a further assay, the target named is κ receptor. Put plainly: In vitro receptor binding, κ receptor, radioligand U69,593. Further details: species or system guinea-pig or rat. Particulars: forebrain membranes, 25° C., 60 min. The protocol:
as §1, §2

Each structure is given as a SMILES string.

`CCC(=O)C(CC(C)N(C)C)(c1ccccc1)c1ccccc1` (centres unmarked) [Methadone]: the “Tumor Weight (mg) (Day 34)” value in the assay on Human NSLC A549 (A549 xenograft s.c., treatment days 4-35, mean ± s.e.m., 8 animals per group) is 337 ± 57 mg. The “& T/C” value in the assay on Human NSLC A549 (A549 xenograft, tumor weight Day 34, treated versus control) stood at 110.

As to `C[C@@H](NC(=O)[C@@H](N)Cc1ccc(O)cc1)C(=O)NCC(=O)N[C@@H](CCc1ccccc1)C(N)=O` [BIM-38046, tyrosyl-D-alanyl-glycyl-homophenylalanine amide], the inhibition constant Ki at μ receptor is 2.92 ± 1.12 nM; at δ receptor, 72.7 nM; at κ receptor, 849 nM.
